# Key:
# [1] = tested on: Bacillus anthracis spores; parameters: species or system Hartley guinea pigs; conditions: guinea pig, in vivo
# Bacillus anthracis Ames = tested on: Bacillus anthracis Ames; parameters: species or system Swiss-Webster mice; conditions: mouse, in vivo
Molecule,"protection, antibody alone ([1]; ip)",animals protected (Bacillus anthracis Ames) [%],ED50 dose [1] [mg/day],protection at low dose 1.12 mg/day [1]
AVP-21D9,provided protection and delayed the mean time of death,40,,
O=C(O)c1cn(C2CC2)c2cc(N3CCNCC3)c(F)cc2c1=O [ciprofloxacin],,,3,non-protective

# From patent US7442373B2 (priority 2003, dated 2008)
